“And” between values parts separate entries of the source, which are not always exact repeats. Identical values can stand only once.
Legend:
MRGPRX4 (S83) = target: T1, MRGPRX4 (S83) (Homo sapiens, UniProt Q96LA9, L83S); assay: EC50 determination, intracellular calcium mobilization in MRGPRX4 stably expressed HEK293 cells (FLIPR Calcium 5, Flexstation-3); assay type: cell-based; settings: for Fig. 1D dose-response, calcium response at Concentration (M): individual replicate values
T1 construct: expressed in transfected cells
Summary of the method: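 EC50 came from a four-parameter logistic fit to averaged triplicate responses, each response being maximum post-stimulation signal less baseline. Intracellular calcium was monitored with Calcium 5 dye in HBSS with 20 mM HEPES, pH 7.4, after 1 h dye loading at 37 °C, using stably transfected HEK293 cells and parental controls.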

[1] = test system: NP2-X4+ mice (MRGPRX4 in Mrgpra3+ NP2 sensory neurons); assay: Itch behavioral study (scratching bouts after subcutaneous nape injection) in NP2-X4+ mice; assay type: in vivo, mouse
NP2-WT mice = assay: Itch behavioral study (scratching bouts after subcutaneous nape injection) in littermate control NP2-WT mice; assay type: in vivo; settings: 30 min after injection of 50 μl 10 mM into the nape, each cell one mouse
[2] = ref ClinicalTrials.gov Identifier: NCT00327392; cited from earlier work
MRGPRX4 WT (S83) = MRGPRX4 WT (S83) (Homo sapiens, UniProt Q96LA9, L83S); assay: PRESTO-Tango β-arrestin recruitment assay, HTLA cells stably expressing WT (S83) MRGPRX4; assay type: cell-based; design: expressed in transfected cells; settings: for PRESTO-Tango response (fig. S1), single replicate: HTLA::MRGPRX4; for fig. S7 response (raw signal), concentration-response: WT, single replicate
Sequence of MRGPRX4 WT (S83) (Q96LA9 whole entry L83S): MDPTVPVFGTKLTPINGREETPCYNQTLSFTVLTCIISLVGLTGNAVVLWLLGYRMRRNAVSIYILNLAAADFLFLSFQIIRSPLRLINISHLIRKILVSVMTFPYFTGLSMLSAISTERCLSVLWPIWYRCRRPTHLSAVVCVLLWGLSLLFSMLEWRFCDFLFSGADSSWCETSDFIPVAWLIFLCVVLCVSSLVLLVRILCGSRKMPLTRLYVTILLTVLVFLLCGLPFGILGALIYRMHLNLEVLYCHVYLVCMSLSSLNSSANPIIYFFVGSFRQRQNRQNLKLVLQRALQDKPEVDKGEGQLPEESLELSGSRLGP

T1 sequence (Q96LA9 whole entry L83S): as above

## CC(C)c1cccc(C(C)C)c1OCOP(=O)(O)O [Fospropofol]
MRGPRX4 (S83)
  EC50: 3.78 nM
MRGPRX4 (S83); 390.6 pM
  Fig. 1D dose-response, calcium response at Concentration (M): 1.887 and 7.675 and 17.3467 and 28.1293 and 25.4823 and 35.7983 and -3.6673 and 11.7957 and 11.3767
MRGPRX4 (S83); 781.2 pM
  Fig. 1D dose-response, calcium response at Concentration (M): 26.5827 and 9.949 and 22.6817 and 47.5243 and 43.9493 and 46.7693 and 30.8217 and 49.6317 and 45.8127
MRGPRX4 (S83); 1.5625e-9 M
  Fig. 1D dose-response, calcium response at Concentration (M): 74.3117 and 80.9857 and 81.1437 and 128.989 and 99.4103 and 141.332 and 62.3957 and 66.3277 and 70.4507
MRGPRX4 (S83); 3.125e-9 M
  Fig. 1D dose-response, calcium response at Concentration (M): 97.9827 and 97.6007 and 113.013 and 161.554 and 132.577 and 128.455 and 112.923 and 102.472 and 92.5087
MRGPRX4 (S83); 6.25e-9 M
  Fig. 1D dose-response, calcium response at Concentration (M): 129.465 and 134.099 and 141.914 and 173.201 and 168.912 and 206.791 and 144.704 and 134.885 and 117.377
MRGPRX4 (S83); 1.25e-8 M
  Fig. 1D dose-response, calcium response at Concentration (M): 164.422 and 179.515 and 157.084 and 234.098 and 206.128 and 222.155 and 172.571 and 101.371 and 130.276
MRGPRX4 (S83); 2.5e-8 M
  Fig. 1D dose-response, calcium response at Concentration (M): 193.287 and 213.245 and 222.211 and 313.329 and 290.374 and 297.501 and 184.525 and 188.459 and 188.843
MRGPRX4 (S83); 5e-8 M
  Fig. 1D dose-response, calcium response at Concentration (M): 209.793 and 233.98 and 204.052 and 317.065 and 340.21 and 331.701 and 193.877 and 181.409 and 188.341
MRGPRX4 (S83); 1e-7 M
  Fig. 1D dose-response, calcium response at Concentration (M): 231.301 and 222.41 and 222.053 and 368.09 and 352.14 and 353.772 and 173.973 and 182.603 and 208.392
MRGPRX4 (S83); 2e-7 M
  Fig. 1D dose-response, calcium response at Concentration (M): 241.094 and 221.904 and 183.593 and 346.939 and 358.59 and 369.748 and 151.356 and 187.22 and 148.627
MRGPRX4 (S83); MRGPRX4-expressing HEK293 cells
  MRGPRX4 agonist activity / calcium signaling: potent agonist of MRGPRX4
MRGPRX4 (S83); dose-response curve fitting, table S1
  Hill coefficient: 0.800
[1]; 50 μl 10 mM nape injection, 30 min
  Scratching / itch behavior, NP2-X4+ mice vs WT littermates: significantly increased scratching behavior
[1]; NP2-X4+, 30 min after injection of 50 μl 10 mM into the nape, each cell one mouse
  Scratching bouts of individual animals: 79 (2×) and 60 and 28 and 56 and 5 and 40 and 132 and 49 and 4 and 42 and 59 and 43 and 52
NP2-WT mice
  Scratching bouts of individual animals: 2 and 38 and 3 and 10 and 15 and 17 and 76 and 40 and 18 and 43
[2]
  Patients who reported paresthesia: 53.6%
  Patients who reported pruritus: 26.0%
MRGPRX4 WT (S83); concentration 1.95e-9 M
  PRESTO-Tango response (fig. S1), single replicate: 0.05347 and 0.06522 and 0.05931 and 0.2207 and 0.1773 and 0.1674 and 0.1338 and 0.1758 and 0.0967
MRGPRX4 WT (S83); concentration 3.91e-9 M
  PRESTO-Tango response (fig. S1), single replicate: 0.1053 and 0.08982 and 0.09599 and 0.3062 and 0.2141 and 0.1584 and 0.1973 and 0.1505 and 0.1812
MRGPRX4 WT (S83); concentration 7.81e-9 M
  PRESTO-Tango response (fig. S1), single replicate: 0.09268 and 0.116 and 0.1017 and 0.3688 and 0.253 and 0.2802 and 0.1468 and 0.2156 and 0.1585
MRGPRX4 WT (S83); concentration 1.56e-8 M
  PRESTO-Tango response (fig. S1), single replicate: 0.2132 and 0.2887 and 0.213 and 0.6375 and 0.7915 and 0.6641 and 0.3649 and 0.3666 and 0.1947
MRGPRX4 WT (S83); concentration 3.13e-8 M
  PRESTO-Tango response (fig. S1), single replicate: 0.293 and 0.3131 and 0.2408 and 1.844 and 1.563 and 1.804 and 0.7421 and 0.6696 and 0.4151
MRGPRX4 WT (S83); concentration 6.25e-8 M
  PRESTO-Tango response (fig. S1), single replicate: 0.5602 and 0.5719 and 0.4853 and 3.825 and 3.698 and 3.023 and 1.231 and 1.143 and 1.136
MRGPRX4 WT (S83); concentration 1.25e-7 M
  PRESTO-Tango response (fig. S1), single replicate: 0.9649 and 0.9632 and 0.8205 and 5.958 and 5.765 and 4.1962 and 2.249 and 2.15 and 1.832
MRGPRX4 WT (S83); concentration 2.5e-7 M
  PRESTO-Tango response (fig. S1), single replicate: 1.521 and 1.3 and 1.661 and 7.755 and 5.82 and 6.8361 and 3.176 and 3.046 and 2.687
MRGPRX4 WT (S83); concentration 5e-7 M
  PRESTO-Tango response (fig. S1), single replicate: 1.9 and 1.632 and 1.827 and 8.423 and 7.014 and 7.51 and 3.752 and 3.569 and 3.3596
MRGPRX4 WT (S83); concentration 1e-6 M
  PRESTO-Tango response (fig. S1), single replicate: 2.509 and 2.322 and 1.947 and 8.611 and 7.367 and 6.973 and 3.852 and 4.064 and 3.742
MRGPRX4 WT (S83); concentration 2e-6 M
  PRESTO-Tango response (fig. S1), single replicate: 2.446 and 2.467 and 2.134 and 8.437 and 7.773 and 6.136 and 3.188 and 3.088 and 4.194
MRGPRX4 WT (S83); 1.95e-9 M
  fig. S7 response (raw signal), concentration-response: 16738 and 13375 and 17578.5 and 9669.59 and 5346.95 and 6521.98 and 5931.28 and 22070.2 and 17734.5
MRGPRX4 WT (S83); 3.91e-9 M
  fig. S7 response (raw signal), concentration-response: 15842.1 and 19726.2 and 15050.8 and 18116.6 and 10530.6 and 8981.76 and 9599.26 and 30619.8 and 21413.5
MRGPRX4 WT (S83); 7.81e-9 M
  fig. S7 response (raw signal), concentration-response: 28015.3 and 14682.6 and 21560.1 and 15853.2 and 9267.54 and 11599.7 and 10170.8 and 36884.4 and 25297.6
MRGPRX4 WT (S83); 1.56e-8 M
  fig. S7 response (raw signal), concentration-response: 66409.6 and 36485.8 and 36662.8 and 19473.7 and 21324 and 28869.2 and 21303.6 and 63745.9 and 79152.7
MRGPRX4 WT (S83); 3.13e-8 M
  fig. S7 response (raw signal), concentration-response: 180426 and 74208.2 and 66960.2 and 41510.5 and 29299.2 and 31309.9 and 24081.1 and 184359 and 156258
MRGPRX4 WT (S83); 6.25e-8 M
  fig. S7 response (raw signal), concentration-response: 302326 and 123092 and 114256 and 113554 and 56022.5 and 57189.8 and 48533.4 and 382536 and 369774
MRGPRX4 WT (S83); 1.25e-7 M
  fig. S7 response (raw signal), concentration-response: 419620 and 224898 and 215037 and 183215 and 96490.1 and 96321.7 and 82049.1 and 595774 and 576456
MRGPRX4 WT (S83); 2.5e-7 M
  fig. S7 response (raw signal), concentration-response: 683610 and 317574 and 304633 and 268745 and 152100 and 129974 and 166066 and 775519 and 581976
MRGPRX4 WT (S83); 5e-7 M
  fig. S7 response (raw signal), concentration-response: 751045 and 375202 and 356942 and 335960 and 190041 and 163176 and 182733 and 842325 and 701403
MRGPRX4 WT (S83); 1e-6 M
  fig. S7 response (raw signal), concentration-response: 697307 and 385223 and 406436 and 374152 and 250882 and 232214 and 194658 and 861126 and 736707
MRGPRX4 WT (S83); 2e-6 M
  fig. S7 response (raw signal), concentration-response: 613596 and 318811 and 308756 and 419448 and 244609 and 246673 and 213444 and 843724 and 777268
